Measurements published in patent US9345793B2, “Compounds for binding to the platelet specific glycoprotein IIB/IIIA and their use for imaging of thrombi” (PIRAMAL IMAGING SA, priority 2011, dated 2016).
pIC50: −log10 of the molar value. Like-named read-outs stand apart in the source and are kept apart here.

What was measured:
[1] = Pharmacokinetics / biodistribution in mice; format: in vivo; conditions: nude mice
Description: The biodistribution of the compound described in example 41 was determined in nude mice. Briefly, the mice received 185 KBq of the compound each. At different time points ([…], 3 mice per group) the animals were sacrificed and the organs of interest or aliquots thereof were removed, weighted and finally measured in a gamma counter (Automatic Gamma Counter Wizard^2 3, Perkin Elmer).

human thrombi = test: Ex vivo blood flow model: binding to human thrombi, incl. competition with cold compound; conditions: ± SEM; for in vitro clot-to-blood ratio / Accumulation Thrombus: 3 minutes post-injection of 18F-labeled compound; for Accumulation Thrombus: without cold compound; for Thrombus competition: cold compound added with hot compound, final plasma concentration 2.8 μM, 3 minutes
From the text: The binding of compounds to thrombi was further investigated in an ex vivo blood flow model similar to that described in “Wakhloo, A. K. et al. Thrombus and stroke 2008, in vitro models 57-66” but modified with regard to thrombus development. Briefly, an open handmade tube-set consisting of tygon-tubes (Tygon R-1000, part N^O AAU00007: I.D. 3.2 mm, O.D. 6.4 mm, Saint Gobain Performance Plastics North America), intermediate tubes (Intrafix® Infusion set, B. Braun, Melsungen, Germany) an open reservoir (10 mL Combitip, Eppendorf) and a chamber made of a piece of polyethylene-Tube, ([…] Polyethylene Tubing, Clay Adams, PE160, length: 6.5 cm) containing a loop of a roughened thread (fishing line: Okuma UltraMax whitefish, diameter: 0.14 mm, length: 5 cm; sandpaper: CAMI Grit designation: 600, CP918a, VSM) was used for thrombus formation. The connection between the intermediate tube and the thrombus chamber was made by trimmed tips (epTIPS, 200 μL, Eppendorff, Hamburg/Germany). The Reservoir and the thrombus chamber were fixed by clamps and stands. A peristaltic-pump (Minipuls 3, Gilson, Middelton/USA) was used to pump the blood around thereby adjusting the flow in the middle of the thrombus chamber to 70-90 cm per second, which was monitored by ultrasound Doppler measurement (Vevo 770 High-Resolution In Vivo Micro-Imaging System, VisualSonics, TorontoOntario, Canada; Scanhead: RMV 704, 40 MHz). The volume of the entire tube-set was 7.5 or 15 mL.
For each experiment fresh blood was taken from a volunteer using 10 mL citrate-tubes (Sarstedt S-Monovette 02.1067.001, 10 mL, Citrate 3.13%) and immediately laid into the turning-device of an incubator at a temperature of 37° C. (Heraeus miniTherm CTT with integrated rotation- and turning device, turning speed: 19 rotations per minute, Heraeus Instruments GmbH, Hanau/Germany). As needed, two tubes were taken out of the turning-device and 15 mL were transferred to a 20 mL Syringe (Omnifix®, B. Braun, Melsungen/Germany) and gently mixed with 0.75 mL CaCl2-Solution before the peristaltic pump was started and the whole content of the syringe was transferred into the reservoir of the tube-set via a cell strainer (BD Falcon™ cell strain, 40 μm, BD, Franklin Lakes, N.J. USA). After 7 minutes 1 MBq or 0.5 MBq (15 mL or 7.5 mL) of the compound was added to the reservoir by means of a pipette, thereby mixing the content gently with the tip of the pipette. The blood was left circulating for another 3 minutes. Then, the pump was stopped, aliquots were taken from the blood and the thrombus together with the roughened thread was removed from the thrombus-chamber before both was weighted and measured in a gamma counter (Automatic Gamma Counter Wizard^2 3, Perkin Elmer). Then the thrombus together with the thread was incubated in Plasmin-solution (Plasmin from Human Plasma, Sigma Aldrich, stock-solution: 500 μg in 500 μL 150 μM Tris-buffer (pH 7.8), 20 μL stock-solution to 230 μL saline solution 0.9%) for 48 hours to separate the platelets from the thread and to determine the netto weight of the thrombus. Finally the activity of the compound in blood and thrombus as well as the ratio between both was determined (cpm/weight [mg]).
To verify the specificity of the compound, a competition experiment was conducted in which the cold compound was added to the reservoir together with the hot compound. The final plasma concentration of the cold compound was 2.8 μM.

[2] = biological target: human GPIIb/IIIa receptor (Homo sapiens (Human), UniProt P05106+P08514); test: Affinity assay: displacement of tritiated reference compound from immobilized purified GPIIb/IIIa; format: binding
human GPIIb/IIIa receptor, sequence (P08514 32-887): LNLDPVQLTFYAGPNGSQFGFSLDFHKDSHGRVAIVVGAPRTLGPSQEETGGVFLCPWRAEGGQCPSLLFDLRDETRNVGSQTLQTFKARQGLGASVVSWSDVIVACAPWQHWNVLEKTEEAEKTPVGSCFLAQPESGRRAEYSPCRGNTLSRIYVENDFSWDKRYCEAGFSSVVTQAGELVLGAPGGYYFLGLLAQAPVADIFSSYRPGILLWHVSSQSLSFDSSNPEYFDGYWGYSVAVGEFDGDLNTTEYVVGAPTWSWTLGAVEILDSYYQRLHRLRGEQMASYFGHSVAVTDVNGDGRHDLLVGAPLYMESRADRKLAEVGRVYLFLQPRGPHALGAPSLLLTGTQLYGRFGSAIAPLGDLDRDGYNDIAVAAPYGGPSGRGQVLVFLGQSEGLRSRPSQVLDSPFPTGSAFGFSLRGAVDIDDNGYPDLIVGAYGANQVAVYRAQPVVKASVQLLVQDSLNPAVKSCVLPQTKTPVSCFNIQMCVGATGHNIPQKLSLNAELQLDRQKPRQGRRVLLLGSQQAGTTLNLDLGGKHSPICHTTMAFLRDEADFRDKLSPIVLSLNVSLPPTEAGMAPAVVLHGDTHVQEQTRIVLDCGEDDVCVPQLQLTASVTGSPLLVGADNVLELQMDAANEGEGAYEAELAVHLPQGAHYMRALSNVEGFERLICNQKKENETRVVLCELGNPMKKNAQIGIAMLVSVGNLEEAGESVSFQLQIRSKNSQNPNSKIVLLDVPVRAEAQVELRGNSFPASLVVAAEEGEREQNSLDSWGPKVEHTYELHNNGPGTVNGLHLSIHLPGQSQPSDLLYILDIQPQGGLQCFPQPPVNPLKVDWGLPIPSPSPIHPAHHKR
human GPIIb/IIIa receptor, sequence (P08514 891-1039 partner): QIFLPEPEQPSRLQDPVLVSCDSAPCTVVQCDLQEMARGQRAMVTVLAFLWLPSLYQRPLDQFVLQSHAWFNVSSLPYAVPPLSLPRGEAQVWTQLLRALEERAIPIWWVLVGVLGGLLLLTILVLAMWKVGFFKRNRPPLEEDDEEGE
human GPIIb/IIIa receptor, sequence (P05106 27-788): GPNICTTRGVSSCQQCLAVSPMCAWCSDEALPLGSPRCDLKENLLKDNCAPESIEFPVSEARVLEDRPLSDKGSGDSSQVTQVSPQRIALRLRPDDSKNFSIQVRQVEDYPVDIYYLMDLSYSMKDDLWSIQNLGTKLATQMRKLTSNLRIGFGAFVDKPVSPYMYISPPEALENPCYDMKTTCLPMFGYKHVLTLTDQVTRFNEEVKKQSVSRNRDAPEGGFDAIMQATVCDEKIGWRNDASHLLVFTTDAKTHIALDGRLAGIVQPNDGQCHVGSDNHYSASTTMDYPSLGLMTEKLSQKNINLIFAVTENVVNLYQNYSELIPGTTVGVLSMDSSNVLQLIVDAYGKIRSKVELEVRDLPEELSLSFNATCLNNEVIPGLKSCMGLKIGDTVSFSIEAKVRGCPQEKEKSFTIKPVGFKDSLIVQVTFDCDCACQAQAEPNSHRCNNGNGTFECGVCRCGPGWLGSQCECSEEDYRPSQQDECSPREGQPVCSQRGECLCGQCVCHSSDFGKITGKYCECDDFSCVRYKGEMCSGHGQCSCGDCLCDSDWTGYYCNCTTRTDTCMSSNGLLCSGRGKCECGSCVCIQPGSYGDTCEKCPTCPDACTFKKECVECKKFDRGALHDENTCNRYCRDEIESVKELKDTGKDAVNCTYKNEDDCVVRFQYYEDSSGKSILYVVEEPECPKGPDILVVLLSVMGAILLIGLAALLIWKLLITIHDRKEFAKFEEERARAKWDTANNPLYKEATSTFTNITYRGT
Description: Affinity assay: In the first step human GPIIb/IIIa purified from human platelets was immobilized on a 96-well solid plate. After 48 hours the plates were washed and the unspecific binding sites were blocked with Roti®-Block. 2. In the next step, the plates were simultaneously incubated with a tritium labeled known GPIIb/IIIa binder (^3H) mixed with increasing concentrations of the novel small molecule compounds (inhibitor, ^19F). The higher the affinity of the inhibitor, the lower the bound fraction of the tritiated known GPIIb/IIIa binder (^3H) was. The fraction of tritiated compound (^3H), which is not displaced by inhibitor, was measured in a microplate scintillation counter.
Purified human glycoprotein IIb/IIIa (20 mM Tris-HCl, 0.1 M NaCl, 0.1% Triton X-100, 1 mM CaCl2, 0.05% NaN3, 50% Glycerol, pH 7.4) was purchased from Enzyme Research Laboratories Inc. (South Bend, Ind.). The GPIIb/IIIa receptor was diluted in phosphate-buffered saline (Dulbecco's Phosphate Buffered Saline (D-PBS(+)) with calcium and magnesium, GIBCO®, Invitrogen) with 0.01% bovine serum albumin (albumin from bovine serum—lyophilized powder, ≧96%, Sigma).
The GPIIb/IIIa receptor was immobilized 48 hours at least (100 μL per well, 48 to maximum 96 hours) on a 96-well solid plate (Immuno Plate MaxiSorp™, Nunc, Roskilde, Denmark) at 277 K to 280 K and at a concentration of 0.1 μg per well to 1 μg per well. As negative control one row of the plate (n=8) was incubated just with 2% bovine serum albumin (200 μper well, albumin from bovine serum—lyophilized powder, […], Sigma, diluted in D-PBS(+)). After washing three times with the wash buffer (230 μL per well, Dulbecco's Phosphate Buffered Saline (D-PBS (−)) contains no calcium or magnesium, GIBCO®, Invitrogen) residual exposed plastic and unspecific binding sites were blocked by incubating the plate with a special blocking solution (200 μL per well, Roti®-Block, Carl Roth GmbH Co KG, Karlsruhe) containing 2% bovine serum albumin (Albumin from bovine serum—lyophilized powder, ≧96%, Sigma) 1 hour at room temperature.
After washing three times with the wash buffer 50 μL of tritiated reference compound (60 nM, ^3H-labeled compound) and 50 μL of novel compound (inhibitor, ^19F) were simultaneously added to each well and incubated for 1 hour at room temperature. Several concentrations of each novel inhibitor (0.1, 1, 2, 5, 10, 20 50, 100, 200, 500, 1000, 2000, 5000, 10000 and 20000 nM) were investigated. At each concentration of inhibitor a fourfold determination was performed.
The maximum value of tritiated reference compound was determined without addition of inhibitor (n=8). To exclude unspecific binding of ^3H-reference compound wells without glycoprotein receptors were used as negative controls (n=12, identically treated just without GP IIb/IIIa receptors).
After one hour the plate was washed three times with phosphate-buffered saline (200 μL per well, Dulbecco's Phosphate Buffered Saline (D-PBS(+)), GIBCO®, Invitrogen). Following 140 μL of liquid scintillation cocktail (MicroScint™ 40 aqueous, Perkin Elmer) was added to each well. After 15 min at room temperature the plates were measured at the microplate scintillation counter (TopCount NXT v2.13, Perkin Elmer, Packard Instrument Company).
In the first step human glycoprotein IIb/IIIa, which is purified from human platelets, was immobilized on a 96-well solid plate. After 48 hours at least the plates were washed and the unspecific binding sites were blocked with Roti®-Block. In the next step, the plates were simultaneously incubated with a tritium labeled reference compound and the novel small molecule compound (inhibitor). The higher the affinity of the inhibitor, the smaller is the bound fraction of reference compound. The fraction of tritiated reference compound, which is not displaced by inhibitor, was measured at a microplate scintillation counter.

[3] = Plasma protein binding by equilibrium dialysis, human plasma; format: in vitro ADME; conditions: plasma (10% in buffer), Caucasian, read-out: Fu (Mari)
Description: (§1) The determination of the plasma protein binding of compounds was performed by means of an equilibrium dialysis in a 96-well HT plate. Solutions of test compound (0.3 μM and 3 μM) were prepared in buffer (50 mM phosphate buffer) and 10% plasma. A 96 well HT dialysis plate (Teflon) was assembled so that each well was divided in two compartments by a semi-permeable cellulose membrane (regenerated Cellulose, MWCO 12-14K). The phosphate buffer solution (150 μL) was added to one side of the membrane and the plasma solution to the other side (150 μL). The compounds were added to the plasma solution side and were incubated at 37 degree. The unbound fraction of the compound could pass through the membrane and equilibrium between the two sides could be reached (6-8 h, 37° C.). Both solutions were analyzed for each compound (plasma-free and plasma-containing) by LC-MS. Both solutions for each compound were diluted with buffer or plasma to reach the same matrix (10% plasma) for analysis and were precipitated by the addition of methanol. The fraction unbound (Fu) was calculated as the quotient of the equilibrium concentrations of the compound in plasma-free and plasma-containing solution.

[4] = Plasma protein binding by equilibrium dialysis, monkey plasma; format: in vitro ADME; conditions: plasma (10% in buffer), Cynomolgus, read-out: Fu (Mari)
Description: as §1

Row | SMILES | in vitro clot-to-blood ratio (human thrombi) | Accumulation Thrombus (human thrombi) | Thrombus competition (human thrombi) | further results
1 | O=C(O)C[C@H](NC(=O)[C@@H]1CCCN(C(=O)CCC2CCNCC2)C1)c1cncc(-c2ccc(OCC[18F])cc2)c1 [Example 41, (3S)-3-{5-[4-(2-[^18F]Fluoroethoxy)phenyl]pyridin-3-yl}-3-[({(3R)-1-[3-(piperidin-4-yl)propanoyl]piperidin-3-yl}carbonyl)amino]propanoic acid] | 83 ± 14 (n = 6) | 44 ± 7 (n = 6) 10^3 cpm/mg | 5 ± 1 (n = 5) 10^3 cpm/mg | enhancement in the vessel-wall [1]: no enhancement in the vessel-wall; excretion [1]: quickly excreted over the kidney and liver; elimination from the blood ([1]; 185 KBq, 1-120 minutes p.i.): rapidly eliminated from the blood; background in the rest of the body ([1]; after 15 minutes p.i.): almost no background in the whole rest of the body
2 | O=C(O)C[C@H](NC(=O)[C@@H]1CCCN(C(=O)CCC2CCNCC2)C1)c1cncc(-c2ccc(OCCF)cc2)c1 [Example 7, (3S)-3-{5-[4-(2-Fluoroethoxy)phenyl]pyridin-3-yl}-3-[({(3R)-1-[3-(piperidin-4-yl)propanoyl]piperidin-3-yl}carbonyl)amino]propanoic acid] |  |  |  | pIC50 ([2]; 19F compounds vs 60 nM 3H-labeled reference compound, 1 hour at room temperature, read-out: IC50 human): 7.96; pIC50 ([2]; values repeated beside the 18F-compound, read-out: IC50 human (corresponding 19F-compound, Table 2)): 7.96; fraction unbound at 0.3 μM ([3]; 0.3 μM): 0.5; fraction unbound at 3 μM ([3]; 3 μM): 0.54; fraction unbound at 0.3 μM ([4]; 0.3 μM): 0.54; fraction unbound at 3 μM ([4]; 3 μM): 0.58
3 | O=C(O)C[C@H](NC(=O)[C@@H]1CCCN(C(=O)CCC2CCNCC2)C1)c1cccc(OCC[18F])c1 [Example 38, (3S)-3-[3-(2-[^18F]Fluoroethoxy)phenyl]-3-[({(3R)-1-[3-(piperidin-4-yl)propanoyl]piperidin-3-yl}carbonyl)amino]propanoic acid] | 19 ± 1 (n = 9) | 41 ± 3 (n = 5) 10^3 cpm/mg | 10 ± 1 (n = 5) 10^3 cpm/mg | 
4 | O=C(O)C[C@H](NC(=O)[C@@H]1CCCN(C(=O)CCC2CCNCC2)C1)c1cncc(CCc2cccc(OCC[18F])c2)c1 [Example 47, (3S)-3-(5-{2-[3-(2-[^18F]Fluoroethoxy)phenyl]ethyl}pyridin-3-yl)-3-[({(3R)-1-[3-(piperidin-4-yl)propanoyl]piperidin-3-yl}carbonyl)amino]propanoic acid] | 178 ± 48 (n = 4) | 258 ± 59 (n = 4) 10^3 cpm/mg | 14 ± 2 (n = 3) 10^3 cpm/mg | 
5 | O=C(O)C[C@H](NC(=O)[C@@H]1CCCN(C(=O)CCC2CCNCC2)C1)c1ccc(OCC[18F])cc1 [Example 39, (3S)-3-[4-(2-[^18F]Fluoroethoxy)phenyl]-3-[({(3R)-1-[3-(piperidin-4-yl)propanoyl]piperidin-3-yl}carbonyl)amino]propanoic acid] | 34 ± 4 (n = 4) | 86 ± 9 (n = 6) 10^3 cpm/mg | 12 ± 1 (n = 6) 10^3 cpm/mg | 
6 | O=C(O)C[C@H](NC(=O)[C@@H]1CCCN(C(=O)CCC2CCNCC2)C1)c1cncc(CCc2ccc(OCC[18F])cc2)c1 [Example 46, (3S)-3-(5-{2-[4-(2-[^18F]Fluoroethoxy)phenyl]ethyl}pyridin-3-yl)-3-[({(3R)-1-[3-(piperidin-4-yl)propanoyl]piperidin-3-yl}carbonyl)amino]propanoic acid] | 191 ± 30 (n = 4) | 285 ± 76 (n = 4) 10^3 cpm/mg | 17 ± 1 (n = 4) 10^3 cpm/mg | 
7 | N#Cc1cc(-c2cncc([C@H](CC(=O)O)NC(=O)[C@@H]3CCCN(C(=O)CCC4CCNCC4)C3)c2)ccc1[18F] [Example 42, (3S)-3-[5-(3-Cyano-4-[^18F]fluorophenyl)pyridin-3-yl]-3-[({(3R)-1-[3-(piperidin-4-yl)propanoyl]piperidin-3-yl}carbonyl)amino]propanoic acid] | 58 ± 10 (n = 6) | 39 ± 5 (n = 6) 10^3 cpm/mg | 5 ± 1 (n = 6) 10^3 cpm/mg | 
